Ends that are not written are not given here.
B1: rLG3: recombinant His6-tagged human laminin α2 chain LG3 domain, amino acids 2537 to 2745 (protein, listed as Homo sapiens)
chain: VELSPVPIDVGTEINLSFSTKNESGIILLGSGGTPAPPRRKRRQTGQAYYVILLNRGRLEVHLSTGARTMRKIVIRPEPNLFHDGREHSVHVERTRGIFTVQVDENRRYMQNLTVEQPIEVKKLFVGGAPPEFQPSPLRNIPPFEGCIWNLVINSVPMDFARPVSFKNADIGRCAHQKLREDEDGAAPAEIVIQPEPVPTPAFPTPTPV
modifications: His6 tag

Experiments:
PC12 cells [1] = test: Cell adhesion inhibition assay: peptide pretreatment, adhesion to rLG3-coated plates; format: cell-based, rat; details: rLG3 25 μg/mL, 1 h
Method: Specifically, PC12 cells were pretreated with the Ln2-LG3-P2 peptide in concentrations of 0, 0.2, 0.4, 0.6, 0.8, 1.0, or 1.2 μg/mL for 10 min at room temperature and then cultured on plates coated with rLG3 (25 μg/mL) for 1 h in serum-free medium.
PC12 cells were pretreated with 500 μg/mL of Ln2-LG3-P1, Ln2-LG3-P2, Ln2-LG3-P3, Ln2-LG3-P4, Ln2-LG3-P5 and SP (scramble peptide) (SEQ ID NO:20) for 10 min at room temperature and then cultured on plates coated with rLG3 (25 μg/mL) in serum-free medium. To observe cell adhesion, PC12 cells were incubated on the coated plates for 1 h and to observe cell spreading, PC12 cells were incubated on the coated plates for 3 h. To observe cell migration, cells were seed into the upper chamber of transwell filters coated with rLG3 (25 μg/mL) and cultured for 24 h. Cell migration was quantified by counting the number of cells that had migrated through the filter.
Specifically, PC12 cells were pretreated with Ln2-LG2-P2 (500 μg/mL) and Ln2-LG3-P2A (500 μg/mL) and then, cell adhesion was observed on plates coated with rLG3 (25 μg/mL).

[2] = tested on: normal human dermal fibroblasts (NHDF); test: Cell adhesion to Ln2-LG3-P2-coated plates, NHDF; format: cell-based; details: NHDF at passage 4, 62.5 μg/mL, 1 h
Method: Normal human dermal fibroblasts (NHDF) isolated from hypodermal tissue of normal human skin were cultured in DMEM containing antibiotics and 10% FBS. Cells at passage 4 were used for the following experiments.

[3] = tested on: normal human epidermal keratinocytes (NHEK); test: Cell adhesion to Ln2-LG3-P2-coated plates, NHEK; format: cell-based; details: NHEK at passage 2, 62.5 μg/mL, 1 h
Method: Normal human epidermal keratinocytes (NHEK) isolated from epidermal tissue of normal human epidermal skin were cultured in keratinocyte growth medium (KGM, manufactured by Clonetics, San Diego, Calif.). Cells at passage 2 were used for the following experiments.

PC12 cells [4] = test: Summary of cell adhesion, spreading, migration and neurite outgrowth promotive effects; format: cell-based, rat; details: summary statement of the description
Method: To measure cell adhesion, spreading, migration, and neurite outgrowth promotive activities of PC12 cells using the prepared synthetic peptides that are N- and C-terminal truncated or C-terminal added peptides of the Ln2-LG3-P2 peptide, peptides described in Table 1 were coated onto plates at 62.5 μg/mL and PC12 cells were seeded thereon.

PC12 cells [5] = test: Inhibition of cell adhesion to laminin by rLG3 / rLG3-M1 pretreatment; format: cell-based, rat; details: laminin 5 μg/mL
Method: In addition, PC12 cells were pretreated with rLG3 (250 or 500 μg/mL) or vehicle (phosphate buffer, pH 3.0) for 30 min and then seeded on plates coated with laminin (5 μg/mL) for 30 min in serum-free medium and cell adhesion was observed.

PC12 cells [6] = test: Neurite outgrowth assay; format: cell-based, rat; details: PC12 cells on coated plates, serum-free, 24 h + 72 h
Method: Laminin, rLG domain protein, and the peptide were coated onto plates and cells were seeded on the plates in serum-free medium and incubated for 24 h. After changing with serum-free medium again, cells were further cultured for 72 h and neurite outgrowth was examined.

Molecule	cell adhesion to rLG3 after peptide pretreatment (PC12 cells [1]; PC12 cells pretreated with 0 to 1.2 μg/mL peptide for 10 min)	inhibition of cell adhesion to rLG3 protein (PC12 cells [1]; PC12 cells pretreated with 500 μg/mL peptide)	cell adhesion activity [2]	cell adhesion activity [3]	cell adhesion, spreading, migration, and neurite outgrowth promotive effects (PC12 cells [4])	inhibition of cell adhesion to laminin (PC12 cells [5]; PC12 cells pretreated with 250 μg/mL for 30 min)	inhibition of cell adhesion to laminin (PC12 cells [5]; PC12 cells pretreated with 500 μg/mL for 30 min)	neurite outgrowth (PC12 cells [6])
RNIPPFEGCIWN (RNIPPFEGCIWN-NH2; listed as Homo sapiens) [Ln2-LG3-P2, 12-mer peptide, position 2675 to 2686 in human laminin α2 chain]	decreased in a dose-dependent manner	approximately 40%	strong cell adhesion activity	strong cell adhesion activity	occurred the most actively			
B1						23%	48%	supports cell adhesion, spreading, migration, and neurite outgrowth

Source: patent US9314510B2, “Human laminin α2 chain LG3 domain and active peptides promoting cell adhesion, spreading, migration, and neurite outgrowth” (SNU R&DB Foundation, priority 2011, dated 2016)
